Source: US8772321B2, “Heteroannelated anthraquinone derivatives for inhibiting cancers” (National Defense Medical Center, priority 2008, dated 2014)
Where a SMILES comes first, the peptide text is derived from it. The star is where a group is joined. Cbz = O=C(OCc1ccccc1)*

Tests used:
Assay type in all cases: cell-based, human
HeLa cells [1] = assay: Apoptosis: cleaved PARP and caspase 3 immunoblot, DNA fragmentation gel; conditions: various doses, 16 hours
Description: It is well noted that DXR can induce cardiomyocyte death by apoptosis and necrosis. DXR is also involved in other types of cellular processes, such as autophagy and senescence/aging. To investigate induction of apoptosis caused by NSC745885, we adopted DXR as a positive control and examined the levels of cleaved PARP and caspase 3 as apoptotic indicators using immunoblot (FIG. 4A), as well as DNA fragmentation using agarose gel electrophoresis (FIG. 4B). HeLa cells were treated with either DXR or NSC745885 at various doses for 16 hours. Subsequently, the total cellular protein was extracted and immunoblotted with antibodies against the cleaved types of PARP and caspase 3. Additionally, genomic DNA was isolated and analyzed by 2% agarose gel electrophoresis followed by ethidium bromide staining. The results (FIG. 4A and FIG. 4B) are representative of three independent experiments. […] Treatment with NSC745885 decreased protein stability, an effect that appeared to be selective, and was confirmed in other immunoblot analyses (shown in FIG. 6A, lanes 1 and 6).
(§1) Cell lysates were prepared in lysis buffer (100 mM Tris-HCl pH 8.0, 150 mM NaCl, 0.1% SDS, and 1% Triton 100) at 4° C., separated by sodium dodecyl sulfate-polyacrylamide gel electrophoresis (SDS-PAGE), and then transferred onto a polyvinylidine difluoride membrane (Millipore, USA). Proteins were detected using antibodies against alpha actinin (ACTN), proliferating cell nuclear antigen (PCNA), p53, p21, cyclin B1, and cyclin D1 (Santa Cruz Biotechnology, USA), YH2A.X (EP854(2)Y, Epitomics, USA), cleaved caspase 3, cleaved poly(ADP-ribose) polymerase (PARP) and LC3B-II (Cell signaling, USA).

HeLa cells [2] = assay: DNA damage, immunoblot of γ-phosphorylation of histone H2A.X; conditions: various doses, 12 hour
Description: The anthracyclin antibiotic agent doxorubicin (DXR) is an active cytotoxic reagent with a wide range of clinical indications, including treatment of solid tumors in the ovary, breast, and gastrointestinal systems, as well as treatment of liquid tumors such as leukemia. […] Specifically, HeLa cells were treated with NSC745885 at various doses for 12 hour. The phosphorylation of γ-H2A.X was subsequently detected by the immunoblot.
as §1

HeLa cells [3] = assay: Autophagosome formation, GFP-LC3 fluorescence microscopy; conditions: HeLa cells transfected with GFP-LC3; 2.5 μM NSC745885, 12 hours
Description: In FIG. 5B, HeLa cells were transfected with 0.25 μg of an expression vector for GFP-LC3 for 24 hours and then treated with 2.5 μM NSC745885 for 12 hours. […] Vehicle (DMSO) and spermidine (Spd) were used as a negative and positive control, respectively.
(§2) In FIGS. 5C and 5D, HeLa cells were incubated with 2.5 μM NSC745885 for 24 hours. After 48 hours, cells were subjected to SA-β-galactosidase staining (FIG. 5C) and approximately 100 stained cells were quantified (*P<0.05; ** P<0.01; *** P<0.005). NSC745885 induced senescence at a rate of 25% (P=0.0085 compared to DMSO). (FIG. 5D) LC3B-I fragments were observed when the cells were exposed to the drug for longer period of time (FIG. 5A, panel labeled as LE). […] We also treated Hela cells with the autophagy inducer spermidine (Spd) and vehicle (DMSO), which act as the positive and the negative control, respectively.

HeLa cells [4] = assay: Cell cycle profile by FACS
Text: Cell cycle arrest is an important damage surveillance mechanism. […] Treating the cells with NSC745885 caused 47-58% of cells to arrest in sub-G1, which is indicative of cell death. This effect was dose- and time-dependent (FIG. 3, Panel B).

HeLa cells [5] = assay: Autophagy: LC3B-II immunoblot; conditions: 12 hours
Description: as §1
Altered intracellular localization of LC3B (LC3B-I) and increased electrophoretic mobility of LC3B (LC3B-II) are correlated with recruitment to autophagic membranes and can be used as molecular markers for autophagic activation.
In FIG. 5A, HeLa cells were treated with the indicated concentrations of DXR, NSC745885 for 12 hours, and then cell lysates were analyzed by immunoblot using antibodies directed against LC3. The results are representative of three independent experiments.

[6] = system: p53-dependent reporter (pG13-LUC); assay: p53-dependent reporter (pG13-LUC) luciferase assay; conditions: HeLa cells co-transfected with Zac1 expression vector
Description: (§3) HeLa and HeLa/shp53 cells were grown in DMEM supplemented with 10% charcoal/dextran-treated fetal bovine serum. Cells in a 24-well plate were transfected with jetPEI (PolyPlus-transfection, France) according to the manufacturer's protocol; total DNA was adjusted to 1.0 μg by the addition of empty vector DNA. Luciferase assays were performed using the Promega Luciferase Assay kit, and the measurement was expressed numerically as relative light units (RLU). Luciferase activities were presented as means and standard deviation of two transfected sets. […] Instead, the reproducibility of the observed effects on luciferase activity was determined in multiple independent transfection experiments.
HeLa cells infected with human papillomavirus and expressing the E6 oncoprotein, which maintains endogenous wild-type p53 at a very low concentration, are used as a model system for studying human cervical tumorigenesis. In order for us to confirm the effects of DXR and NSC745885 on endogenous p53, HeLa cells were transiently transfected with a p53-dependent reporter (pG13-LUC) (FIG. 7A) and a p21 promoter reporter (p21-LUC) (FIG. 7B), along with an expression vector for a well-known p53 activator (Zac1).

HeLa cells [7] = assay: Senescence-associated β-galactosidase staining; conditions: DXR at low concentrations
Description: Cultured cells were washed in PBS (pH 7.4), incubated in a solution of 2% formaldehyde/0.2% glutaraldehyde, and then incubated overnight at 37° C. in freshly prepared staining solution consisting of 1 mg/mL X-gal (5-bromo-4-chloro-3-indolyl-β-D-galactoside), 5 mM K3Fe(CN)6, 5 mM K4Fe(CN)6, 150 mM NaCl and 2 mM MgCl2 in 40 mM citric acid/sodium phosphate, pH 6.0. Following this incubation, cells were washed with water and examined by light microscopy at 200× magnification.
as §2

HeLa/shp53 cells = assay: MTT cell viability assay, HeLa vs HeLa/shp53; conditions: endogenous p53 silenced; 24, 48, 72 hours
Description: as §3
To understand the functional role that endogenous p53 plays in the cytotoxic effects of DXR and NSC745885, we measured cell viability of HeLa or HeLa/shp53 cells using MTT cell viability assay. In this assay, endogenous p53 is silenced, both in the presence or absence of the drugs (FIG. 8). […]

p53 and p21 = p53 and p21 protein expression, immunoblot; conditions: HeLa cells, MG132 1 uM or 10 uM added 3 hours before harvesting; only at lower concentrations of NSC745885
Description: as §1
Cell cycle regulatory protein p21 is one of p53's targets. […] In this experiment, HeLa cells were treated with the indicated concentrations of DXR or NSC745885 for 12 hours and then assessed by immunoblot (FIG. 6A) and RT-PCR (FIG. 6B).
In FIG. 6C, HeLa cells were treated with the indicated concentrations of NSC745885 for 12 hours; proteasome inhibitor MG132 (1 uM or 10 uM) was added 3 hours before harvesting. Cell protein extracts were tested with anti-p53 and anti-p21 antibodies. The results are representative of two independent experiments.

Row | SMILES | induction of apoptosis (cleaved PARP, caspase 3, DNA fragmentation) (HeLa cells [1]) | DNA damage (phosphorylation of γ-H2A.X, immunoblot) (HeLa cells [2]) | autophagosome formation (LC3 aggregation, GFP-LC3) (HeLa cells [3]) | cell cycle arrest (HeLa cells [4]) | LC3B-II fragment formation (autophagic activation) (HeLa cells [5]) | Zac1-induced p53-dependent reporter activity [6] | senescence rate (SA-β-galactosidase staining) (HeLa cells [7]) [%] | sensitivity (cell viability, MTT) in HeLa/shp53 versus HeLa cells (HeLa/shp53 cells) | effect of MG132 on p53 and p21 degradation by NSC745885 (p53 and p21)
1 | COc1cccc2c1C(=O)c1c(O)c3c(c(O)c1C2=O)C[C@@](O)(C(=O)CO)C[C@@H]3O[C@H]1C[C@H](N)[C@H](O)[C@H](C)O1 [DXR, doxorubicin, reference compound] | strongly induced | strongly induced DNA damage | autophagosome formation | cell cycle arrest in S phase | LC3B-II fragment formation | inhibited Zac1-induced activity | 73 | dependent on endogenous p53 for cell killing | –
2 | CC(C)C[C@@H](C=O)NC(=O)[C@H](CC(C)C)NC(=O)[C@H](CC(C)C)NC(=O)OCc1ccccc1 [MG132, reference compound] (Cbz-Leu-Leu-Leu-aldehyde) | – | – | – | – | – | – | – | – | attenuate the degradation of p53 and p21
